Test results taken from publication PMC9916951, “Enzyme Inhibition-Based Assay to Estimate the Contribution of Formulants to the Effect of Commercial Pesticide Formulations” (International Journal of Molecular Sciences, 2023).
Where two headings read alike, the source gives them in different places.

Assays:
trypsin = target: T1, trypsin (Sus scrofa, UniProt P00761); test: Single-enzyme assay system, trypsin activity (absorbance 253 nm); assay type: biochemical, porcine
T1 construct: purchased Sigma-Aldrich; host or cells: porcine pancreas
T1 sequence (P00761 9-231): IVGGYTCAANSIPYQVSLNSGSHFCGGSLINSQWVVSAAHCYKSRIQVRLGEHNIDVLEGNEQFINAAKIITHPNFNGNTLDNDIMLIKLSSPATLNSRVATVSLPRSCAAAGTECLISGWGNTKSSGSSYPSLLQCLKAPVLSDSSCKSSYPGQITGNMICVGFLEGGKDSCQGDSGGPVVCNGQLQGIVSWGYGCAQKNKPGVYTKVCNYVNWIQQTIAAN
Method: (§1) The activities of enzyme assay systems were determined by measuring the absorbance of reaction mixture solutions or bioluminescence intensity in the solutions of the analyzed pesticide active ingredients or in the control solution.
Trypsin activity was analyzed in the reaction mixture containing 490 μL of the 0.1 M Clark and Lubs buffer pH 7.6, 11 mU of trypsin, 40 μL of 1 mM hydrochloric acid, and 460 μL of the 0.5 mM BAEE solution. The absorbances of the solutions were measured at 253 nm.
(§2) The effects of the active ingredients of pesticide and the solvents on the activity of the enzymes in the single-enzyme assay systems were determined as the relative activity according to the formula A = (At/Ac)∙100%, where Ac and At are the enzyme activity in the control and in the analyte solution, respectively.
(§3) The parameter IC50 was used to estimate the inhibitory effect of the active ingredients of pesticides on the enzyme activity and the bioluminescence intensity of a multi-enzyme assay system. It is the concentration of the active ingredient decreasing the enzyme activity by 50%.

[1] = target: alkaline phosphatase (ALP) (Bos taurus, UniProt P19111); test: Single-enzyme assay system, ALP activity (absorbance 405 nm); assay type: biochemical, bovine; details: 13.5 mg/L of fenvalerate (AIa)
Chain of alkaline phosphatase (ALP) (P19111 20-506): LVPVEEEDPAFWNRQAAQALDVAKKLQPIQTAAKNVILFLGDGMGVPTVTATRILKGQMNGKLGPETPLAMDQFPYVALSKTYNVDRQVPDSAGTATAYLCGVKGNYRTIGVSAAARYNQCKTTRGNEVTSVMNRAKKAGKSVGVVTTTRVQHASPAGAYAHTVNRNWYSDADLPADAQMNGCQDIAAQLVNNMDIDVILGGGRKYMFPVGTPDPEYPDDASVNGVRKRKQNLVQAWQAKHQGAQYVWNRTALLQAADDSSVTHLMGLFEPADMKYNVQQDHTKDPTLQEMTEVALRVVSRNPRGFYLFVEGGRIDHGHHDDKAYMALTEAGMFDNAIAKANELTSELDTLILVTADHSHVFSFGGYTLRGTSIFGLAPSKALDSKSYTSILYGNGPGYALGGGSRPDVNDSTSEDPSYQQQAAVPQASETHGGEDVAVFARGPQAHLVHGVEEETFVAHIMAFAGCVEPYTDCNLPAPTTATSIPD
Method: as §1
The activity of the ALP was analyzed in the following reaction mixture: 990 μL of the glycine NaOH buffer pH 9.6 containing 0.5 mM MgCl2, 1.2 mU of the ALP solution, 8 μL of the 33 mM […] solution, and 30–50 μL of the analyte solution. The absorbance of the solutions was measured at 405 nm.
as §2, §3

[2] = target: T2, butyrylcholinesterase (BChE) (Equus caballus, UniProt P81908); test: Single-enzyme assay system, BChE activity (Ellman's method, 412 nm); assay type: biochemical, equine
T2 construct: purchased Sigma-Aldrich; host or cells: equine serum
T2 sequence (P81908 whole entry): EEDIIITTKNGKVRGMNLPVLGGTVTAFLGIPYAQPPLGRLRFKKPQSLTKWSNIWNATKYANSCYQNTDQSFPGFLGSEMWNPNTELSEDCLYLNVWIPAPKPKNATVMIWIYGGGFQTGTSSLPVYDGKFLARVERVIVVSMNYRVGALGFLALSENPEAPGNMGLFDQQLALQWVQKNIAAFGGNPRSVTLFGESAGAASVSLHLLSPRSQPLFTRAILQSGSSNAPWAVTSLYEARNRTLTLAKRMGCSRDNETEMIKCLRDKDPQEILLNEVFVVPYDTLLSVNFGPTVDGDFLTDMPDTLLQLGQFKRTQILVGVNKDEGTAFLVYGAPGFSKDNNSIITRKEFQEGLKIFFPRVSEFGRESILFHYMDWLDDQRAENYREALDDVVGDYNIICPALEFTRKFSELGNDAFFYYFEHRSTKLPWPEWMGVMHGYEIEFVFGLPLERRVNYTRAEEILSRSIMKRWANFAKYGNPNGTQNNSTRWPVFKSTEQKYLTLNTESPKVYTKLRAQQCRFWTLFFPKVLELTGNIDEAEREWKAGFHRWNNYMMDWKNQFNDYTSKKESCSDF
Method: as §1
To analyze BChE activity Ellman’s method was used. The absorbance of the solutions was measured at the 412 nm. We used the following reaction mixture: 800–850 μL of the 0.05 M potassium-phosphate buffer pH 8.0, 70 mU of BChE, 60 μL of 0.2 mM 5,5′-dithiobis (2-nitrobenzoic acid), 60 μL of 0.2 mM S-BCh-I, and 50–100 μL of the analyte solution or the solvent solution used as control.
as §2, §3

[3] = target: T3, lactate dehydrogenase (LDH) (Oryctolagus cuniculus, UniProt P13491); test: Single-enzyme assay system, LDH activity (absorbance 340 nm); assay type: biochemical, rabbit
T3 construct: purchased Sigma-Aldrich; host or cells: rabbit muscle
Method: as §1
(§4) The activities of single-enzyme assay systems with Red, ADH, and LDH were determined by changes in the absorbance at 340 nm.
The reaction mixture for the LDH-catalyzed reaction comprised 850 μL of the 0.05 M potassium-phosphate buffer pH 8.0, 9 U of LDH, 40 μL of the 3.25 mM NADH solution, 30 μL of the 69 mM pyruvate solution, and 50 μL of the analyte solution or the solvent solution (control).
as §2, §3

[4] = target: T4, alcohol dehydrogenase (ADH) (Saccharomyces cerevisiae, UniProt P00330); test: Single-enzyme assay system, ADH activity (absorbance 340 nm); assay type: biochemical, baker's yeast
T4 construct: purchased Sigma-Aldrich; host or cells: baker’s yeast
T4 sequence (P00330 whole entry): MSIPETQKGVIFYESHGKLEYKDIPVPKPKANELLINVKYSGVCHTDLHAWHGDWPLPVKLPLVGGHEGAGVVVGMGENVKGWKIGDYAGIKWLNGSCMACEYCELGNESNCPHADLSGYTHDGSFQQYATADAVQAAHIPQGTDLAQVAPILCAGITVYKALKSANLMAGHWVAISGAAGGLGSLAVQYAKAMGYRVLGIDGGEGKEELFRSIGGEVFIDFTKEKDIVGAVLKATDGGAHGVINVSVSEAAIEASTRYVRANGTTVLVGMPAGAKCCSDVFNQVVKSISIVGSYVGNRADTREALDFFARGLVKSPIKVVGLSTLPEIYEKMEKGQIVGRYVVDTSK
Method: as §1, §4
The activity of the ADH was estimated by using the following reaction mixture: 1500 μL of the potassium-phosphate buffer 0.05 M pH 7.85, 750 mU of ADH, 40 μL of the 2.4 mM NAD^+ solution, and 25 μL of 95% ethanol. Distilled water and acetonitrile were used as control solutions.
as §2, §3

[5] = target: NAD(P)H:FMN-oxidoreductase + luciferase (Red + Luc); test: Coupled enzyme assay system Red + Luc, luminescence intensity; assay type: biochemical, Vibrio fischeri; Photobacterium leiognathi; details: active ingredient alone (AIa)
Method: (§5) The activities of the multi-enzyme assay systems were determined from the values of the luminescence intensity in the presence of the control or the analyte solutions.
To analyze the effect of pesticides on the luminescence intensity of the Red + Luc coupled enzyme assay system, we used the following reaction mixture: 290 μL of the 0.05 M potassium-phosphate buffer pH 6.8; 5 μL of the Red + Luc mixture, preliminarily diluted in 5 mL of the buffer solution; 50 μL of the 0.0025% tetradecanal solution; 50 μL of the 0.5 mM FMN solution; 100 μL of the 0.4 mM NADH solution; and 10–200 μL of the analyte solution or the solvent solution used as a control. Ratio of Red to Luc in the reaction mixture was 1.2:1; and their concentrations were about 15 and 13 nM, respectively.
(§6) The effect of the pesticide active ingredients and solvents on the multi-enzyme reactions was estimated from the residual luminescence intensity calculated according to the formula I = (It/Ic)∙100%, where Ic and It are the average values of luminescence intensity in the presence of the control or analyte solution, respectively.
as §3

[6] = target: alcohol dehydrogenase + NAD(P)H:FMN-oxidoreductase + luciferase (ADH + Red + Luc); test: Three-enzyme assay system ADH + Red + Luc, luminescence intensity; assay type: biochemical, baker's yeast; Vibrio fischeri; Photobacterium leiognathi; details: active ingredient alone (AIa)
Method: as §5
An analysis of the activity of the ADH + Red + Luc three-enzyme assay system was performed using the reaction mixture containing 350 μL of the 0.05 M potassium-phosphate buffer pH 6.9; 5 μL of 0.5 mg/mL ADH; 5 μL of the Red + Luc solution, preliminarily diluted in 5 mL of the buffer solution; 50 μL of the 0.0025% tetradecanal solution; 100 μL of the 0.4 mM NAD^+ solution; 10 μL of the 0.5 mM FMN solution; 5 μL of 95% ethanol; and 10–100 μL of the solvent (control) or the analyte solution. The proportions of ADH, Red, and Luc in the reaction mixture were 10:1.2:1, and their concentrations were about 120, 14, and 12 nM, respectively.
as §6, §3

[7] = target: lactate dehydrogenase + NAD(P)H:FMN-oxidoreductase + luciferase (LDH + Red + Luc); test: Three-enzyme assay system LDH + Red + Luc, luminescence intensity; assay type: biochemical, rabbit; Vibrio fischeri; Photobacterium leiognathi; details: active ingredient alone (AIa)
Method: as §5
The reaction mixture for analyzing the luminescence intensity of the LDH + Red + Luc three-enzyme assay system consisted of 5 μL of 0.5 mg/mL LDH; 300 μL of the 0.05 M potassium-phosphate buffer pH 7.1; 10 μL of the 15 mM lactate solution; 50 μL of the 0.0025% tetradecanal solution; 10 μL of the Red + Luc solution, preliminarily diluted in 5 mL of the buffer solution; 10 μL of the 0.5 mM FMN solution; 100 μL of the 0.5 mM NAD^+ solution; and 10–50 μL of the analyte solution or the solvent solution (control). The proportions of LDH, Red, and Luc in the reaction mixture were 1.4:1.2:1, and their concentrations were about 36, 31, and 26 nM, respectively.
as §6, §3

[8] = maximum residual levels of the active ingredient, Russian Federation; cited from earlier work
[9] = target: NAD(P)H:FMN-oxidoreductase (Red); test: Single-enzyme assay system, Red activity (absorbance 340 nm); assay type: biochemical, Vibrio fischeri; details: active ingredient alone (AIa)
Method: as §1, §4
The reaction mixture for the Red-catalyzed reaction consisted of 750 μL of the 0.05 M potassium-phosphate buffer pH 7.25, 6 mU of Red, 100 μL of the 0.4 mM NADH solution, 10 μL of the 0.5 mM FMN solution, and 5–100 μL of the analyte solution or the solvent (control).
as §2, §3

[10] = system: Photobacterium phosphoreum; test: Bioluminescence of luminous bacterium P. phosphoreum; assay type: cell-based
Method: Bacterium P. phosphoreum 1889 was provided by the museum at the IBP SB RAS [68]. P. phosphoreum cells were grown for 24 h on solid medium for marine bacteria. The cells were suspended in the sodium-phosphate buffer pH 7.4.
The effects of active ingredients of pesticides on the luminous bacterium were determined by changes in the bacterial luminescence intensity in the presence of the analyte relative to the control value. The solvent was used as a control solution. The reaction mixture for analyzing the luminescence intensity of luminous bacterium in the presence of control solution contained 450 μL of bacterial suspension and 5 μL of ethanol or 50 μL of distilled water, used as solvents for active ingredients of pesticides. A cuvette with the reaction mixture was placed into a luminometer, and luminescence intensity (Ic) was measured after 1 min. Then, another aliquot of bacterial suspension and 5 or 50 μL of a pesticide active ingredient solution were placed into a luminometer cuvette, and luminescence intensity (It) was measured after 1 min. The residual luminescence intensity was determined according to the formula I = (It/Ic) ∙ 100%.
The parameter EC50 was used to estimate the inhibitory effect of the active ingredients of pesticides on the bioluminescence of P. phosphoreum. […]

[11] = active ingredient alone (AIa), read-out: IC50, BChE (converted)
[12] = active ingredient alone (AIa), read-out: IC50, LDH (converted)
[13] = active ingredient alone (AIa), read-out: IC50, ADH (converted)

SMILES	IC50 [2, 11] [µM]	IC50 [3, 12] [µM]	IC50, Red + Luc [5]	IC50, ADH + Red + Luc [6]	IC50, LDH + Red + Luc [7]	IC50 [4, 13] [µM]	MRL RUS [8] [mg/kg]	other results
CC(C)C(C(=O)OC(C#N)c1cccc(Oc2ccccc2)c1)c1ccc(Cl)cc1 (stereo not shown) [Fenvalerate, fenvalerate]	286	7.14	4.8 µg/mL	1.6 µg/mL	31.7 µg/mL			increase in trypsin activity (trypsin; 10 mg/L of fenvalerate (AIa)): 28%; increase in ALP activity [1]: 26%; IC50, ADH ([4]; active ingredient alone (AIa)): No inhibitory effects
CC1(C)[C@H](C(=O)O[C@H](C#N)c2cccc(Oc3ccccc3)c2)[C@@H]1C=C(Br)Br [Deltamethrin, deltamethrin]	198	59.4	3.7 µg/mL	1.0 µg/mL	7.7 µg/mL	20.6	0.01 to 0.3	
O=C(O)CNCP(=O)(O)O [Glyphosate, glyphosate]	207		288 µg/mL	3200 µg/mL	935 µg/mL	30400		IC50 (trypsin; active ingredient alone (AIa), read-out: IC50, Trypsin (converted)): 5690 µM; IC50 (trypsin; glyphosate as AIa, read-out: IC50, trypsin (Figure 2 legend) (converted)): 5680 µM; IC50, LDH ([3]; active ingredient alone (AIa)): no 50% inhibition; IC50, Red [9]: no 50% inhibition; concentration giving 50% inhibition of Red + Luc activity [5]: 0.3 g/L
O=[N+]([O-])NC1=NCCN1Cc1ccc(Cl)nc1 [Imidacloprid, imidacloprid]			– (No inhibitory effect of the AIa and AIf was detected in the tested concentration range.)	– (No inhibitory effect of the AIa and AIf was detected in the tested concentration range.)	– (No inhibitory effect of the AIa and AIf was detected in the tested concentration range.)		0.1 to 1.0	EC50, P. phosphoreum bioluminescence ([10]; active ingredient alone (AIa), luminescence after 1 min): did not produce any detectable effect; EC20 (20% quenching of bacterial bioluminescence) ([10]; imidacloprid as AIa and as AIf): 50 µg/mL
CCOP(=S)(OCC)Oc1cc(C)nc(C(C)C)n1 [Diazinon, diazinon]			2234 µg/mL	11 µg/mL	3351 µg/mL		0.1 to 0.5	IC50, LDH ([3]; active ingredient alone (AIa)): No inhibitory effects; IC50 [4]: 47.6 µM
CC1(C)C(C=C(Cl)Cl)C1C(=O)OC(C#N)c1cccc(Oc2ccccc2)c1 (stereo not shown) [Cypermethrin, cypermethrin]		60.1	1.8 µg/mL	0.2 µg/mL	6.5 µg/mL	0.48		IC50, Trypsin (trypsin; active ingredient alone (AIa)): No inhibitory effects
CCOC(=O)CC(SP(=S)(OC)OC)C(=O)OCC (stereo not shown) [Malathion, malathion]							0.05 to 1.0	IC50 [2]: 1820 µM; IC50 [3]: 1060 µM
